Source: patent US20230348473A1, “SUBSTITUTED PYRIDINES AS PARP1 INHIBITORS” (Xinthera, Inc., priority 2022, published 2023)

Experiments:
PARP1 = PARP1 (Homo sapiens (Human), UniProt P09874); test: Biochemical fluorescence polarization (FP) assay, PARPi-FL displacement, PARP1; format: binding; settings: 20 nM protein, 3 nM PARPi-FL, 4 h
Description: (§1) To characterize our compounds, we utilized an assay measuring the displacement of a commercially available fluorescently labeled PARP 1/2 inhibitor (PARPi-FL, Tocris Biosciences, #6461) as exemplified in assays performed in WO2014/064149 and WO2021/013735A1. The assay was performed utilizing the following method: Compounds were dissolved in DMSO an Echo550 liquid handler was utilized to make serial dilations in the desired concentration range in Optiplate-384F plates. 100% DMSO was used for the high (with protein) and low (without protein) control samples. 20 nL of compound or DMSO alone was added to individual assay plate wells. […] The PARPi-FL was then added at a final concentration of 3 nM. The assay plate is centrifuged at 1000 rpm for 1 min and incubated for 4 h at room temperature. […] XLFit (equation 201) is used to calculate a reported IC50 for each compound.

PARP2 = PARP2 (Homo sapiens (Human), UniProt Q9UGN5); test: Biochemical fluorescence polarization (FP) assay, PARPi-FL displacement, PARP2; format: binding; settings: 20 nM protein, 3 nM PARPi-FL, 4 h
Sequence of PARP2 (Q9UGN5 whole entry): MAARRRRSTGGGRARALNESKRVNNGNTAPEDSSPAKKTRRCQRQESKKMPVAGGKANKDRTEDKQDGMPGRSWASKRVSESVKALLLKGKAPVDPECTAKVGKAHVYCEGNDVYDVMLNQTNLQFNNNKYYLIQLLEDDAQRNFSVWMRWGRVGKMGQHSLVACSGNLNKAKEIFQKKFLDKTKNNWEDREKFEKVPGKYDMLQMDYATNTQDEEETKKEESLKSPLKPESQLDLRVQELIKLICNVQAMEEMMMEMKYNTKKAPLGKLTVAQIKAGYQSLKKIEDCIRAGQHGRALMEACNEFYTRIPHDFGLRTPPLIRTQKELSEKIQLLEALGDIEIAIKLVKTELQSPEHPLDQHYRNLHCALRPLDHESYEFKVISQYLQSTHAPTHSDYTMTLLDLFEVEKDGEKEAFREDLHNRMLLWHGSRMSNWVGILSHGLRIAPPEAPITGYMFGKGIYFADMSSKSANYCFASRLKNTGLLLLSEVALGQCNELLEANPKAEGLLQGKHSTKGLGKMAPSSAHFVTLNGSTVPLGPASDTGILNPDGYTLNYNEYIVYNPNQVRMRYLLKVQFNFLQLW
Description: as §1

Sequence of PARP1 (P09874 whole entry): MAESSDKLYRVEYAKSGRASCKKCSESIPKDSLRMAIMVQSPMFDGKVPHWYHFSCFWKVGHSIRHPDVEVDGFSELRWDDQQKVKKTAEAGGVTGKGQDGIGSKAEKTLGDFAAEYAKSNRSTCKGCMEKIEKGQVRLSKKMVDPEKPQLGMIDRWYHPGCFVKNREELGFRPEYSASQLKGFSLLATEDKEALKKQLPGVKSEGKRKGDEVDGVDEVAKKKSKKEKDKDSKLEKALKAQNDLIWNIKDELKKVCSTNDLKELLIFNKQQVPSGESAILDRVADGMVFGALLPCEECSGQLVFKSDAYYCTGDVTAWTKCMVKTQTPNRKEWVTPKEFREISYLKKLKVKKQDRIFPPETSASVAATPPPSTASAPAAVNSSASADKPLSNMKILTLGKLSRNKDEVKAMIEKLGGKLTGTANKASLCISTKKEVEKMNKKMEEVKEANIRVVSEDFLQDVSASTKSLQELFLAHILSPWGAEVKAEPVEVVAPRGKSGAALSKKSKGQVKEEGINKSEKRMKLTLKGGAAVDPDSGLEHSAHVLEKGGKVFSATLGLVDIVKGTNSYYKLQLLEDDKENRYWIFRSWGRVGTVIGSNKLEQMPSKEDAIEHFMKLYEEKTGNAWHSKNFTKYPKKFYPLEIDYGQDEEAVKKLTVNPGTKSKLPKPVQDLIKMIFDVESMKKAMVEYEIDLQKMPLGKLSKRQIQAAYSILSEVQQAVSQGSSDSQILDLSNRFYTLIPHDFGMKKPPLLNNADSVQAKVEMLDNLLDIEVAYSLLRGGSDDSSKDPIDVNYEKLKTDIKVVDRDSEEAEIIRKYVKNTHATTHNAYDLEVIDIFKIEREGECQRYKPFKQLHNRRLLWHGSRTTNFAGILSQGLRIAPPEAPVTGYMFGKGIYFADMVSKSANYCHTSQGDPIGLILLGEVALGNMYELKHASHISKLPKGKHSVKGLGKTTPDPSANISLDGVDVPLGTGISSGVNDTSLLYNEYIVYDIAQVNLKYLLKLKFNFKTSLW

Row | Compound | IC50 (PARP1) | IC50 (PARP2)
1 | COCCNC(=O)c1ccc(N2CCN(Cc3ccc4c([nH]c(=O)c5cc(C)nn54)c3F)CC2)c(F)n1 [Example 17] | 0.014 µM | > 100 µM
2 | Cc1cc2c(=O)[nH]c3c(F)c(CN4CCN(c5ccc(C(=O)NCC(F)F)nc5F)CC4)ccc3n2n1 [Example 13] | 0.025 µM | > 100 µM
3 | O=C(NCC(F)F)c1ccc(N2CCN(Cc3ccc4c([nH]c(=O)c5ccoc54)c3F)CC2)c(F)n1 [Example 11] | 0.014 µM | > 100 µM
4 | CNC(=O)c1ccc(N2CCN(Cc3ccc4c([nH]c(=O)c5ccoc54)c3F)CC2)c(F)n1 [Example 6, 6-fluoro-5-[4-({6-fluoro-4-oxo-5H-furo[3,2-c]quinolin-7-yl}methyl)piperazin-1-yl]-N-methylpyridine-2-carboxamide] | 0.021 µM | > 100 µM
5 | O=C(NC1CC1)c1ccc(N2CCN(Cc3ccc4c([nH]c(=O)c5ccnn54)c3F)CC2)c(F)n1 [Example 3] | 0.022 µM | > 100 µM
6 | CNC(=O)c1ccc(N2CCN(Cc3ccc4c([nH]c(=O)c5cc(C)nn54)c3F)CC2)c(F)n1 [Example 5] | 0.041 µM | > 100 µM
7 | Cc1cc2c(=O)[nH]c3c(F)c(CN4CCN(c5ccc(C(=O)NC6CC6)nc5F)CC4)ccc3n2n1 [Example 4] | 0.016 µM | > 100 µM
8 | CNC(=O)c1ccc(N2CCN(Cc3ccc4c([nH]c(=O)c5cnn(C)c54)c3F)CC2)c(F)n1 [Example 19, 6-fluoro-5-[4-({6-fluoro-1-methyl-4-oxo-5H-pyrazolo[4,3-c]quinolin-7-yl}methyl)piperazin-1-yl]-N-methylpyridine-2-carboxamide] | 0.1 µM | > 100 µM
9 | CNC(=O)c1ccc(N2CCN(Cc3ccc4c([nH]c(=O)c5c(C)cnn54)c3F)CC2)c(F)n1 [Example 23] | 0.026 µM | > 100 µM
10 | CNC(=O)c1ccc(N2CCN(Cc3ccc4c([nH]c(=O)n5cccc45)c3F)CC2)c(F)n1 [Example 7, 6-fluoro-5-[4-({7-fluoro-5-oxo-6H-pyrrolo[1,2-c]quinazolin-8-yl}methyl)piperazin-1-yl]-N-methylpyridine-2-carboxamide] | 0.018 µM | > 100 µM

Stronger by IC50 (PARP1), values ahead:

Row | IC50 (PARP1) | IC50 (PARP2) | Compound
11 | 0.01 µM | > 100 µM | CNC(=O)c1ccc(N2CCN(Cc3ccc4c([nH]c(=O)c5c(F)cnn54)c3F)CC2)c(F)n1 [Example 28, 5-[4-({3,6-difluoro-4-oxo-5H-pyrazolo[1,5-a]quinoxalin-7-yl}methyl)piperazin-1-yl]-6-fluoro-N-methylpyridine-2-carboxamide]
12 | 0.012 µM | > 100 µM | O=C(NCC(F)F)c1ccc(N2CCN(Cc3ccc4c5c(c(=O)[nH]c4c3F)CCO5)CC2)c(F)n1 [Example 15]
13 | 0.011 µM | > 100 µM | CNC(=O)c1ccc(N2CCN(Cc3ccc4c([nH]c(=O)c5cn(C)nc54)c3F)CC2)c(F)n1 [Example 20, 6-fluoro-5-[4-({6-fluoro-2-methyl-4-oxo-5H-pyrazolo[4,3-c]quinolin-7-yl}methyl)piperazin-1-yl]-N-methylpyridine-2-carboxamide]
14 | 0.013 µM | > 100 µM | CNC(=O)c1ccc(N2CCN(Cc3ccc4c5c(c(=O)[nH]c4c3F)CCO5)CC2)cn1 [Example 26]
15 | 0.01 µM | > 100 µM | O=C(NC1CC1)c1ccc(N2CCN(Cc3ccc4c([nH]c(=O)c5ccoc54)c3F)CC2)c(F)n1 [Example 14]
